Experimental findings from patent publication US20210403606A1, “METHOD FOR SEPARATING AND PURIFYING POLYSACCHARIDES FROM GANODERMA SPORES” (ZHONGKE HEALTH INDUSTRY GROUP JIANGSU PHARMACEUTICAL CO., …, priority 2018, published 2021) are described below.

The subject of data set [1] is transplanted tumor S180. Kind of data set: Inhibitory effects on the transplanted tumor S180 in mice by tail vein injection. Type of data set: in vivo, ICR mice. How it is done:
(§1) 1.2. Animals: ICR mice, 18-22 g, half males and half females, provided by the Animal Laboratory of China Pharmaceutical University. The animals were fed with pellet feed in an air-conditioned room at a temperature of 18-24° C., and a relative humidity of 70%.
3.2. Inhibitory effects of No. 1, No. 2, and No. 3 on the transplanted tumor S180 in mice by tail vein injection
3.2.1. Route of administration: No. 1, No. 2, and No. 3 are administrated by tail vein injection (iv).
3.2.2. Schedule of administration: the mice are inoculated with solid-type 5180 tumors according to protocols of transplanted tumor research, and 24 hours after inoculation, the medicines are intravenously administered once every other day for a total of 4 doses. On the day after stopping administration, the mice are sacrificed and dissected.
3.2.3. Dose setting: There are 6 groups in total, namely:
3.2.4. Volume of administration: 0.4 ml/20 g
(§2) 3.2.5. Test method: 60 mice of the foregoing specification were inoculated with solid-type 5180 tumors according to protocols of the transplanted tumor research. The mice were weighed 24 hours after inoculation, and randomly divided into 6 groups, each with 10 mice, having half males and half females. The blank control group and the CTX group were respectively used as a negative control group and a positive control group. 24 hours after inoculation, the medicines were intravenously administered once every other day for a total of 4 doses. The mice were weighed on the day after stopping administration. The tumor-bearing mice were sacrificed, and the tumor masses were separated and weighed, and the obtained data was statistically processed (t-test).

The test system of data set [2] is transplanted tumor Heps. As to the kind of experiment: Inhibitory effects on the transplanted tumor Heps in mice by tail vein injection. In kind it is in vivo, ICR mice. How it is done:
as §1
3.1. Inhibitory effects of No. 1, No. 2, and No. 3 on the transplanted tumor Heps in mice by tail vein injection
3.1.1. Route of administration: No. 1, No. 2, and No. 3 are administrated by tail vein injection (iv).
3.1.2. Schedule of administration: the mice are inoculated with solid-type Heps tumors according to protocols of transplanted tumor research, and 24 hours after inoculation, the medicines are intravenously administered once every other day for a total of 4 doses. On the day after stopping administration, the mice are sacrificed and dissected.
3.1.3. Dose setting: There are 6 groups in total, namely:
3.1.4. Volume of administration: 0.4 ml/20 g
as §2, with “3.1.5.” for “3.2.5.”, “Heps” for “5180”

As to `O=P1(N(CCCl)CCCl)NCCCO1` (centres unmarked) [CTX, Cyclophosphamide], the Tumor inhibition rate is recorded as 65.71% in data set [1] (S180, 30 mg/kg once every other day, 4 doses) and 74.20% in data set [2] (Heps, 30 mg/kg once every other day, 4 doses). Moreover, the Tumor weight in data set [1] (S180, 30 mg/kg once every other day, 4 doses, X ± SD, n = 10) worked out at 0.55 ± 0.18 g; in data set [2] (Heps, 30 mg/kg once every other day, 4 doses, X ± SD, n = 10), 0.42 ± 0.19 g. Besides, the “Weight After administration” value is reported as 23.2 ± 2.74 in data set [1] (S180-bearing mice, 30 mg/kg once every other day, 4 doses, X ± SD, n = 10) and 23.2 ± 2.74 in data set [2] (Heps-bearing mice, 30 mg/kg once every other day, 4 doses, X ± SD, n = 10). In addition, the “Weight Before administration” value in data set [1] (S180-bearing mice, 30 mg/kg, baseline body weight, X ± SD, n = 10) is reported as 20.1 ± 1.28; in data set [2] (Heps-bearing mice, 30 mg/kg, baseline body weight, X ± SD, n = 10) it was 20.0 ± 1.36.
